How the values were obtained:
Format in all cases: cell-based
SW-620 = assay: NCI 60 panel, Colon Cancer SW-620; conditions: Homo sapiens, read-out: Tumor cell inhibitory activity (NCI) GI50
DU-145 = assay: NCI 60 panel, Prostate Cancer DU-145; conditions: Homo sapiens, read-out: Tumor cell inhibitory activity (NCI) GI50
MDA-MB-231/ATCC = assay: NCI 60 panel, Breast Cancer MDA-MB-231/ATCC; conditions: Homo sapiens, read-out: Tumor cell inhibitory activity (NCI) GI50
SNB-19 = assay: NCI 60 panel, CNS Cancer SNB-19; conditions: Homo sapiens, read-out: Tumor cell inhibitory activity (NCI) GI50
VEGFR2 = VEGFR2 (Homo sapiens, UniProt P35968); assay: VEGFR2 kinase inhibition, whole-cell assay; conditions: read-out: kinase inhibition IC50 [whole-cell assays] VEGFR2
SK-MEL-2 = assay: NCI 60 panel, Melanoma SK-MEL-2; conditions: Homo sapiens, read-out: Tumor cell inhibitory activity (NCI) GI50
MDA-MB-435 = assay: NCI 60 panel, Melanoma MDA-MB-435; conditions: Homo sapiens, read-out: Tumor cell inhibitory activity (NCI) GI50
A549/ATCC = assay: NCI 60 panel, NSCLC A549/ATCC; conditions: Homo sapiens, read-out: Tumor cell inhibitory activity (NCI) GI50
UO-31 = assay: NCI 60 panel, Renal Cancer UO-31; conditions: Homo sapiens, read-out: Tumor cell inhibitory activity (NCI) GI50
COLO 205 = assay: NCI 60 panel, Colon Cancer COLO 205; conditions: Homo sapiens, read-out: Tumor cell inhibitory activity (NCI) GI50
RXF 393 = assay: NCI 60 panel, Renal Cancer RXF 393; conditions: Homo sapiens, read-out: Tumor cell inhibitory activity (NCI) GI50
HT29 = assay: NCI 60 panel, Colon Cancer HT29; conditions: Homo sapiens, HT-29, read-out: Tumor cell inhibitory activity (NCI) GI50
IGROVI = assay: NCI 60 panel, Ovarian cancer IGROVI; conditions: read-out: Tumor cell inhibitory activity (NCI) GI50

Sequence of VEGFR2 (P35968 20-1356, species assumed): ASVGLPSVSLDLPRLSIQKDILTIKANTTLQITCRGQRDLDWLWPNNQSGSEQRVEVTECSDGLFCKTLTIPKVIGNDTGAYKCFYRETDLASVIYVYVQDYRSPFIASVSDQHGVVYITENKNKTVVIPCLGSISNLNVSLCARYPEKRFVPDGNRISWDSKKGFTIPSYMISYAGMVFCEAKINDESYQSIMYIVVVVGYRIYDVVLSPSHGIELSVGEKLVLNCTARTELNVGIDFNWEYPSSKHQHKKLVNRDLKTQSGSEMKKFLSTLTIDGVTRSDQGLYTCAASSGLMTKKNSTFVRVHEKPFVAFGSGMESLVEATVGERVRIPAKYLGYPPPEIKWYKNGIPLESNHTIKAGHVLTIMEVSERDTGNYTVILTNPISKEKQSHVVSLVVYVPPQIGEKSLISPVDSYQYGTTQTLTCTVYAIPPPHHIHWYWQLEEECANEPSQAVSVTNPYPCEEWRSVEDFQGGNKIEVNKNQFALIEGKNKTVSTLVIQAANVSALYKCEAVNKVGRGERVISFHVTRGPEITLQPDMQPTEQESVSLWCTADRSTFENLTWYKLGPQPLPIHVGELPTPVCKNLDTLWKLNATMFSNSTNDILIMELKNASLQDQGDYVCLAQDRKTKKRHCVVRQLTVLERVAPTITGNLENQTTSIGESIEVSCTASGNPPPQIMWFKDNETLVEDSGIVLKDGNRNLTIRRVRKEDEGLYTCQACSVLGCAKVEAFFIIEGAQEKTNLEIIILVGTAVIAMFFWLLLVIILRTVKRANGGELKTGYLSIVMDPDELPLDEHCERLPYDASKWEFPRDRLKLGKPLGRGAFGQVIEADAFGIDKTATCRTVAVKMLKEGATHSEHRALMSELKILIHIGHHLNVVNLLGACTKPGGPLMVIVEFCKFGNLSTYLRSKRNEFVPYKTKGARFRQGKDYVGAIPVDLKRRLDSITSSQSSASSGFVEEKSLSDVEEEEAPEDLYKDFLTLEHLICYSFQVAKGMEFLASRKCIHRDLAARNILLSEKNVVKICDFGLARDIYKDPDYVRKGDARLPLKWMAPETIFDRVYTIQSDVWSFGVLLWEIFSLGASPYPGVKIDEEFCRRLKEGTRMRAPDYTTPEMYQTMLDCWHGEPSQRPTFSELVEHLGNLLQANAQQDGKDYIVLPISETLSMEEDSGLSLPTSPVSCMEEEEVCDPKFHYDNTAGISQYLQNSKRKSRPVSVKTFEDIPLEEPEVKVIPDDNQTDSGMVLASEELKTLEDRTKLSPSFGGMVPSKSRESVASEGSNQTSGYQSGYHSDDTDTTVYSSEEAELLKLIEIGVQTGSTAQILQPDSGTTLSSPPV

With `COc1ccc(N(C)c2nc(C)nc3c(Cc4ccccc4)cn(C)c23)cc1` [Compound 4, 7-Benzyl-N-(4-methoxyphenyl)-N,2,5-trimethyl-5H-pyrrolo[3,2-d]pyrimidin-4-amine] the GI50 (SW-620) was 38.4 nM, the GI50 (DU-145) was 44.4 nM and the GI50 (MDA-MB-231/ATCC) was 63.7 nM. The GI50 (SNB-19) was 54.7 nM, the IC50 (VEGFR2) was 33 nM and the GI50 (SK-MEL-2) was 28.6 nM. For the same compound, the GI50 (MDA-MB-435) was 21.4 nM, the GI50 (A549/ATCC) was 44 nM and the GI50 (UO-31) was 209 nM. It also gave a GI50 (COLO 205) of 26.3 nM, a GI50 (RXF 393) of 25.4 nM and a GI50 (HT29) of 35.1 nM. For the same compound, the GI50 (IGROVI) was 95.8 nM.
